Laboratory results as given in patent publication US20230398130A1, “METHODS AND COMPOSITIONS FOR DIFFERENTIATING STEM CELLS” (Massachusetts Institute of Technology, priority 2020, published 2023).

Legend:
ISC-enriched organoids [1] = experiment: Primary screen, 384-well 2.5-D organoid differentiation (ENR+CD, 6 days, Target Selective Inhibitor Library, vs whole-plate median): ATP (CellTiter-Glo 3D, CTG); settings: for Dose.FC.CTG: FC vs plate median; for SSMD.CTG: strictly standardized mean difference
ISC-enriched organoids [2] = experiment: Primary screen, 384-well 2.5-D organoid differentiation (ENR+CD, 6 days): carbachol-induced lysozyme secretion (LYZ.S); format: cell-based, murine; settings: primary screen; for Dose.FC.LYZ.S: FC vs plate median; for Z.LYZ.S: standard z score; for SSMD.LYZ.S: strictly standardized mean difference
Text: (§1) High-throughput screening.

ISC-enriched organoids [3] = experiment: Primary screen, 384-well 2.5-D organoid differentiation (ENR+CD, 6 days): basal lysozyme secretion (LYZ.NS); format: cell-based, murine; settings: primary screen; for Dose.FC.LYZ.NS: FC vs plate median; for Z.LYZ.NS: standard z score; for SSMD.LYZ.NS: strictly standardized mean difference
Text: as §1

[4] = primary screen, 1st of the 4 dose lines of the treatment (dose not given)
[5] = primary screen, 2nd of the 4 dose lines of the treatment (dose not given)
[6] = primary screen, 3rd of the 4 dose lines of the treatment (dose not given)
[7] = primary screen, 4th of the 4 dose lines of the treatment (dose not given)
[8] = 1st of the 4 dose lines of the treatment (dose not given)
[9] = 2nd of the 4 dose lines of the treatment (dose not given)
[10] = 3rd of the 4 dose lines of the treatment (dose not given)
[11] = 4th of the 4 dose lines of the treatment (dose not given)

Ifenprodil Tartrate gave a Dose.FC.CTG (ISC-enriched organoids [1]; Dose 0.08 uM, primary screen) of 0.102 log 2 fold change, a Z.CTG (ISC-enriched organoids [1]; Dose 0.08 uM, primary screen, standard z score) of 0.243 and a Dose.FC.CTG (ISC-enriched organoids [1]; Dose 0.40 uM, primary screen) of 0.111 log 2 fold change. For the same molecule, the Z.CTG (ISC-enriched organoids [1]; Dose 0.40 uM, primary screen, standard z score) was 0.265, the Dose.FC.CTG (ISC-enriched organoids [1]; Dose 2.00 uM, primary screen) was −0.003 log 2 fold change and the Z.CTG (ISC-enriched organoids [1]; Dose 2.00 uM, primary screen, standard z score) was −0.008. It also gave a Dose.FC.CTG (ISC-enriched organoids [1]; Dose 10.00 uM, primary screen) of −1.034 log 2 fold change, a Z.CTG (ISC-enriched organoids [1]; Dose 10.00 uM, primary screen, standard z score) of −2.471 and an SSMD.CTG (ISC-enriched organoids [1]; [4]) of 0.218. The SSMD.CTG (ISC-enriched organoids [1]; [5]) was 0.279, the SSMD.CTG (ISC-enriched organoids [1]; [6]) was −0.009 and the SSMD.CTG (ISC-enriched organoids [1]; [7]) was −1.277. The Dose.FC.LYZ.S (ISC-enriched organoids [2]; Dose 0.08 uM) was 0.050 log 2 fold change, the Dose.FC.LYZ.S (ISC-enriched organoids [2]; Dose 0.40 uM) was 0.017 log 2 fold change and the Dose.FC.LYZ.S (ISC-enriched organoids [2]; Dose 2.00 uM) was −0.023 log 2 fold change. The Dose.FC.LYZ.S (ISC-enriched organoids [2]; Dose 10.00 uM) was −0.301 log 2 fold change, the Z.LYZ.S (ISC-enriched organoids [2]; [8]) was 0.325 and the Z.LYZ.S (ISC-enriched organoids [2]; [9]) was 0.107. It also gave a Z.LYZ.S (ISC-enriched organoids [2]; [10]) of −0.151, a Z.LYZ.S (ISC-enriched organoids [2]; [11]) of −1.947 and an SSMD.LYZ.S (ISC-enriched organoids [2]; [8]) of 0.255. For the same molecule, the SSMD.LYZ.S (ISC-enriched organoids [2]; [9]) was 0.091, the SSMD.LYZ.S (ISC-enriched organoids [2]; [10]) was −0.103 and the SSMD.LYZ.S (ISC-enriched organoids [2]; [11]) was −1.030. It also gave a Dose.FC.LYZ.NS (ISC-enriched organoids [3]; Dose 0.08 uM) of 0.056 log 2 fold change, a Z.LYZ.NS (ISC-enriched organoids [3]; Dose 0.08 uM) of 0.492 and a Dose.FC.LYZ.NS (ISC-enriched organoids [3]; Dose 0.40 uM) of −0.019 log 2 fold change. It also gave a Z.LYZ.NS (ISC-enriched organoids [3]; Dose 0.40 uM) of −0.161, a Dose.FC.LYZ.NS (ISC-enriched organoids [3]; Dose 2.00 uM) of 0.123 log 2 fold change and a Z.LYZ.NS (ISC-enriched organoids [3]; Dose 2.00 uM) of 1.068. The Dose.FC.LYZ.NS (ISC-enriched organoids [3]; Dose 10.00 uM) was −0.219 log 2 fold change, the Z.LYZ.NS (ISC-enriched organoids [3]; Dose 10.00 uM) was −1.909 and the SSMD.LYZ.NS (ISC-enriched organoids [3]; [8]) was 0.372. The SSMD.LYZ.NS (ISC-enriched organoids [3]; [9]) was −0.116, the SSMD.LYZ.NS (ISC-enriched organoids [3]; [10]) was 0.504 and the SSMD.LYZ.NS (ISC-enriched organoids [3]; [11]) was −1.176.
In the case of `O=C(O)Cn1nnc(-c2cc(N3CCC(Oc4cc(F)ccc4Br)CC3)no2)n1` [MK-8245], the Z.CTG (ISC-enriched organoids [1]; Dose 0.08 uM, standard z score of FC) is reported as 0.374, the Z.CTG (ISC-enriched organoids [1]; Dose 0.40 uM, standard z score of FC) is reported as −0.269 and the Z.CTG (ISC-enriched organoids [1]; Dose 2.00 uM, standard z score of FC) is reported as −0.051. It also gave a Z.CTG (ISC-enriched organoids [1]; Dose 10.00 uM, standard z score of FC) of −0.629, an SSMD.CTG (ISC-enriched organoids [1]; [4]) of 0.453 and an SSMD.CTG (ISC-enriched organoids [1]; [5]) of −0.219. The SSMD.CTG (ISC-enriched organoids [1]; [6]) was −0.054, the SSMD.CTG (ISC-enriched organoids [1]; [7]) was −0.921 and the Z.LYZ.S (ISC-enriched organoids [2]; [8]) was 0.449. It also gave a Z.LYZ.S (ISC-enriched organoids [2]; [9]) of 1.194, a Z.LYZ.S (ISC-enriched organoids [2]; [10]) of −0.399 and a Z.LYZ.S (ISC-enriched organoids [2]; [11]) of −0.799. The SSMD.LYZ.S (ISC-enriched organoids [2]; [8]) was 0.442, the SSMD.LYZ.S (ISC-enriched organoids [2]; [9]) was 0.527 and the SSMD.LYZ.S (ISC-enriched organoids [2]; [10]) was −0.357. It also gave an SSMD.LYZ.S (ISC-enriched organoids [2]; [11]) of −0.752, an SSMD.LYZ.NS (ISC-enriched organoids [3]; [8]) of 0.168 and an SSMD.LYZ.NS (ISC-enriched organoids [3]; [9]) of 0.200. It also gave an SSMD.LYZ.NS (ISC-enriched organoids [3]; [10]) of −0.322 and an SSMD.LYZ.NS (ISC-enriched organoids [3]; [11]) of −0.716.
